Source: ChEMBL document CHEMBL3885861, “Open TG-GATES”

Organism: Rattus norvegicus
Experiment: Open TG-GATES - Regimen: Daily Repeat
Type: toxicity, organism-based, Sprague-Dawley
Parameters: regimen Daily Repeat, gender Male, age 6 weeks
Conditions: in vivo, iv, 0 mg/kg, route intravenous injection, dose level Control; for APTT / Bas / Eos / Fbg / Hb / Ht / Lym / MCH / MCHC / MCV / Mono / Neu / PT / Plat / RBC / Ret / WBC: tissue Blood; for KIDNEY_L / KIDNEY_R / KIDNEY_TOTAL: tissue Kidney; for LIVER: tissue Liver; for A/G / ALP / ALT / AST / BUN / CRE / Ca / Cl / DBIL / GLC / IP / K / LDH / Na / PL / RALB / TBIL / TC / TG / TP / gamma-GTP: tissue Plasma

## C[C@@H]1[C@H](O)[C@@H](C)/C=C/C=C/C=C/C=C/C=C/C=C/C=C/[C@H](O[C@@H]2O[C@H](C)[C@@H](O)[C@H](N)[C@@H]2O)C[C@@H]2O[C@](O)(C[C@@H](O)C[C@@H](O)[C@H](O)CC[C@@H](O)C[C@@H](O)CC(=O)O[C@H]1C)C[C@H](O)[C@H]2C(=O)O [AMPHOTERICIN B]
72 h, time 3 day
  TERMINAL_BW: 239.8 g
  APTT: 16.6 s
  Bas: 0%
  Eos: 1%
  Fbg: 293.6 mg/dL
  Hb: 13.7 g/dL
  Ht: 40.1%
  Lym: 75.8%
  MCH: 20.5 pg
  MCHC: 34.2%
  MCV: 60 fL
  Mono: 2.2%
  Neu: 19.8%
  PT: 12.6 s
  Plat: 145.3 x10_4/uL
  RBC: 668.2 x10_4/ul
  Ret: 4.9%
  WBC: 97.1 x10_2/uL
  KIDNEY_L: 1 g
  KIDNEY_R: 1 g
  KIDNEY_TOTAL: 2 g
  LIVER: 11.5 g
  A/G: 0.8
  ALP: 1512.4 IU/L
  ALT: 38.6 IU/L
  AST: 66.2 IU/L
  BUN: 16.6 mg/dL
  CRE: 0.2 mg/dL
  Ca: 11 mg/dL
  Cl: 105.4 meq/L
  DBIL: 0.02 mg/dL
  GLC: 175.4 mg/dL
  IP: 7.3 mg/dL
  K: 4.1 meq/L
  LDH: 58.6 IU/L
  Na: 142.8 meq/L
  PL: 140.6 mg/dL
  RALB: 2.7 g/dL
  TBIL: 0.046 mg/dL
  TC: 73.6 mg/dL
  TG: 110.8 mg/dL
  TP: 6 g/dL
  gamma-GTP: 1.2 IU/L
[…], time 7 day
  TERMINAL_BW: 275.6 g
  APTT: 17.5 s
  Bas: 0%
  Eos: 1%
  Fbg: 264.4 mg/dL
  Hb: 13.4 g/dL
  Ht: 38.9%
  Lym: 79.8%
  MCH: 20.7 pg
  MCHC: 34.4%
  MCV: 60 fL
  Mono: 2.2%
  Neu: 16%
  PT: 12.3 s
  Plat: 122.6 x10_4/uL
  RBC: 648.2 x10_4/ul
  Ret: 4.7%
  WBC: 102.1 x10_2/uL
  KIDNEY_L: 1.1 g
  KIDNEY_R: 1.1 g
  KIDNEY_TOTAL: 2.2 g
  LIVER: 12 g
  A/G: 0.8
  ALP: 1920.8 IU/L
  ALT: 35 IU/L
  AST: 69 IU/L
  BUN: 17 mg/dL
  CRE: 0.2 mg/dL
  Ca: 11.3 mg/dL
  Cl: 105.6 meq/L
  DBIL: 0.02 mg/dL
  GLC: 179.8 mg/dL
  IP: 7 mg/dL
  K: 4.3 meq/L
  LDH: 63 IU/L
  Na: 143.8 meq/L
  PL: 136.2 mg/dL
  RALB: 2.7 g/dL
  TBIL: 0.05 mg/dL
  TC: 69.8 mg/dL
  TG: 101.6 mg/dL
  TP: 5.9 g/dL
  gamma-GTP: 1 IU/L
[…], time 14 day
  TERMINAL_BW: 324.6 g
  APTT: 16.3 s
  Bas: 1%
  Eos: 1%
  Fbg: 280.6 mg/dL
  Hb: 14.6 g/dL
  Ht: 41.3%
  Lym: 80%
  MCH: 20.5 pg
  MCHC: 35.4%
  MCV: 57.8 fL
  Mono: 2.4%
  Neu: 15.6%
  PT: 12.3 s
  Plat: 129.9 x10_4/uL
  RBC: 716.4 x10_4/ul
  Ret: 4%
  WBC: 134.6 x10_2/uL
  KIDNEY_L: 1.3 g
  KIDNEY_R: 1.3 g
  KIDNEY_TOTAL: 2.6 g
  LIVER: 14 g
  A/G: 0.8
  ALP: 1407.4 IU/L
  ALT: 40.8 IU/L
  AST: 66 IU/L
  BUN: 18 mg/dL
  CRE: 0.2 mg/dL
  Ca: 10.9 mg/dL
  Cl: 105 meq/L
  DBIL: 0.014 mg/dL
  GLC: 185.4 mg/dL
  IP: 7.4 mg/dL
  K: 4.2 meq/L
  LDH: 61 IU/L
  Na: 142.8 meq/L
  PL: 144.6 mg/dL
  RALB: 2.6 g/dL
  TBIL: 0.048 mg/dL
  TC: 76.2 mg/dL
  TG: 117 mg/dL
  TP: 6 g/dL
  gamma-GTP: 1 IU/L
[…], time 28 day
  TERMINAL_BW: 391.3 g
  APTT: 19.2 s
  Bas: 0.4%
  Eos: 1%
  Fbg: 260.4 mg/dL
  Hb: 15.3 g/dL
  Ht: 43.7%
  Lym: 77%
  MCH: 18.9 pg
  MCHC: 35%
  MCV: 54 fL
  Mono: 1.4%
  Neu: 19%
  PT: 13 s
  Plat: 114.3 x10_4/uL
  RBC: 808.4 x10_4/ul
  Ret: 2.2%
  WBC: 119.7 x10_2/uL
  KIDNEY_L: 1.4 g
  KIDNEY_R: 1.3 g
  KIDNEY_TOTAL: 2.8 g
  LIVER: 15.5 g
  A/G: 0.7
  ALP: 1095.6 IU/L
  ALT: 36.8 IU/L
  AST: 62.2 IU/L
  BUN: 17.2 mg/dL
  CRE: 0.2 mg/dL
  Ca: 11.1 mg/dL
  Cl: 105 meq/L
  DBIL: 0.018 mg/dL
  GLC: 186 mg/dL
  IP: 6.2 mg/dL
  K: 3.8 meq/L
  LDH: 54.2 IU/L
  Na: 144.4 meq/L
  PL: 148.6 mg/dL
  RALB: 2.6 g/dL
  TBIL: 0.06 mg/dL
  TC: 73.8 mg/dL
  TG: 157 mg/dL
  TP: 6.4 g/dL
  gamma-GTP: 1.2 IU/L
